Peptide text beside a SMILES is read from it. * marks the point of attachment. Palmitoyl = CCCCCCCCCCCCCCCC(=O)*
How the values were obtained:
Assay type in all cases: cell-based
[1] = system: Methicillin Resistant Staphylococcus epidermidis (MRSE, RP62A); details: Methicillin Resistant (, RP62A, 18 h)
[2] = system: Klebsiella pneumoniae (K. pneumoniae, ATCC 13383); details: ATCC 13383, 18 h
[3] = system: Methicillin Resistant Staphylococcus aureus (MRSA, ATCC 33591); details: ATCC 33591, 18 h
[4] = system: Vancomycin Resistant Enterococcus faecalis (E. faecalis, ATCC 700802); details: ATCC 700802, 18 h
[5] = system: Escherichia coli (E. coli, JM109); details: JM109, 18 h

CCCCCCCCCCCCCCCC(=O)N[C@@H](CCCCN)C(=O)N[C@@H](Cc1ccccc1)C(=O)N[C@@H](CCCCN)C(N)=O [C16-K-F-K] (Palmitoyl-Lys-Phe-Lys-NH2)
>25 µg/mL: MIC MRSE [1] | MIC K. pneumoniae [2] | MIC MRSA [3] | MIC E. faecalis [4] | MIC E. coli [5]

Source: article PMC6059979 (European journal of medicinal chemistry, 2018)
